Publication PMC11277489, “Novel Piperazine Derivatives of Vindoline as Anticancer Agents” (International Journal of Molecular Sciences, 2024)
Like-named read-outs stand apart in the source and are kept apart here.

Legend:
Type in all cases: cell-based
[1] = tested on: UACC-62; assay: NCI60 five-dose screen, Melanoma; details: Homo sapiens
[2] = tested on: MCF7; assay: NCI60 five-dose screen, Breast Cancer; details: Homo sapiens
[3] = tested on: HT29; assay: NCI60 five-dose screen, Colon Cancer; details: Homo sapiens, HT-29
[4] = tested on: SF-295; assay: NCI60 five-dose screen, CNS Cancer; details: Homo sapiens
[5] = tested on: SN12C; assay: NCI60 five-dose screen, Renal Cancer; details: Homo sapiens
[6] = tested on: 786–0; assay: NCI60 five-dose screen, Renal Cancer; details: Homo sapiens
[7] = tested on: NCI-H23; assay: NCI60 five-dose screen, Non-small Cell Lung Cancer; details: Homo sapiens
[8] = tested on: A498; assay: NCI60 five-dose screen, Renal Cancer; details: Homo sapiens
[9] = tested on: SNB-19; assay: NCI60 five-dose screen, CNS Cancer; details: Homo sapiens
[10] = tested on: HOP-62; assay: NCI60 five-dose screen, Non-small Cell Lung Cancer; details: Homo sapiens
[11] = tested on: CCRF-CEM; assay: NCI60 five-dose screen, Leukemia; details: Homo sapiens
[12] = tested on: OVCAR-8; assay: NCI60 five-dose screen, Ovarian Cancer; details: Homo sapiens
[13] = tested on: UO-31; assay: NCI60 five-dose screen, Renal Cancer; details: Homo sapiens
[14] = tested on: NCI-H522; assay: NCI60 five-dose screen, Non-small Cell Lung Cancer; details: Homo sapiens
[15] = tested on: SF-539; assay: NCI60 five-dose screen, CNS Cancer; details: Homo sapiens
[16] = tested on: NCI-H322M; assay: NCI60 five-dose screen, Non-small Cell Lung Cancer; details: Homo sapiens
[17] = tested on: KM12; assay: NCI60 five-dose screen, Colon Cancer; details: Homo sapiens
[18] = tested on: SK-MEL-2; assay: NCI60 five-dose screen, Melanoma; details: Homo sapiens
[19] = tested on: SK-OV-3; assay: NCI60 five-dose screen, Ovarian Cancer; details: Homo sapiens
[20] = tested on: RPMI-8226; assay: NCI60 five-dose screen, Leukemia; details: Homo sapiens
[21] = tested on: COLO 205; assay: NCI60 five-dose screen, Colon Cancer; details: Homo sapiens
[22] = tested on: SK-MEL-28; assay: NCI60 five-dose screen, Melanoma; details: Homo sapiens
[23] = tested on: 60 human tumor cell lines (NCI60); assay: NCI60 five-dose screen, whole panel and sub-panel means
[24] = tested on: SNB-75; assay: NCI60 five-dose screen, CNS Cancer; details: Homo sapiens
[25] = tested on: HCT-116; assay: NCI60 five-dose screen, Colon Cancer; details: Homo sapiens
[26] = tested on: HOP-92; assay: NCI60 five-dose screen, Non-small Cell Lung Cancer; details: Homo sapiens
[27] = tested on: UACC-257; assay: NCI60 five-dose screen, Melanoma; details: Homo sapiens
[28] = tested on: DU-145; assay: NCI60 five-dose screen, Prostate Cancer; details: Homo sapiens
[29] = tested on: MOLT-4; assay: NCI60 five-dose screen, Leukemia; details: Homo sapiens
[30] = tested on: NCI-H226; assay: NCI60 five-dose screen, Non-small Cell Lung Cancer; details: Homo sapiens
[31] = tested on: MALME-3M; assay: NCI60 five-dose screen, Melanoma; details: Homo sapiens
[32] = tested on: CAKI-1; assay: NCI60 five-dose screen, Renal Cancer; details: Homo sapiens
[33] = tested on: EKVX; assay: NCI60 five-dose screen, Non-small Cell Lung Cancer; details: Homo sapiens

CC[C@]12C=CCN3CC[C@@]4(c5ccc(OC)cc5N(C)[C@H]4[C@@](O)(C(=O)OC)[C@@H]1OC(=O)CCC(=O)N1CCN(C(c4ccc(F)cc4)c4ccc(F)cc4)CC1)[C@@H]32 [Compound 31]
GI50 ([1]; UACC-62, Melanoma, five-dose screen, read-out: GI50): 1.92 µM | GI50 ([2]; MCF7, Breast Cancer, five-dose screen, read-out: GI50): 1.74 µM | GI50 ([3]; HT29, Colon Cancer, five-dose screen, read-out: GI50): 1.76 µM | GI50 ([4]; SF-295, CNS Cancer, five-dose screen, read-out: GI50): 2.11 µM | GI50 ([5]; Renal Cancer, five-dose screen, read-out: GI50): 1.47 µM | GI50 ([6]; 786–0, Renal Cancer, five-dose screen, read-out: GI50): 2.47 µM | GI50 ([7]; NCI-H23, Non-small Cell Lung Cancer, five-dose screen, read-out: GI50): 2.7 µM | GI50 ([8]; A498, Renal Cancer, five-dose screen, read-out: GI50): 2.38 µM | GI50 ([9]; SNB-19, CNS Cancer, five-dose screen, read-out: GI50): 3.58 µM | GI50 ([10]; HOP-62, Non-small Cell Lung Cancer, five-dose screen, read-out: GI50): 2.55 µM | GI50 ([11]; Leukemia, five-dose screen, read-out: GI50): 2.11 µM | GI50 ([12]; OVCAR-8, Ovarian Cancer, five-dose screen, read-out: GI50): 3.18 µM | GI50 ([13]; UO-31, Renal Cancer, five-dose screen, read-out: GI50): 2.32 µM | GI50 ([14]; NCI-H522, Non-small Cell Lung Cancer, five-dose screen, read-out: GI50): 2.04 µM | GI50 ([15]; SF-539, CNS Cancer, five-dose screen, read-out: GI50): 2.02 µM | GI50 ([16]; Non-small Cell Lung Cancer, five-dose screen, read-out: GI50): 4.99 µM | GI50 ([17]; KM12, Colon Cancer, five-dose screen, read-out: GI50): 2.36 µM | GI50 ([18]; SK-MEL-2, Melanoma, five-dose screen, read-out: GI50): 1.62 µM | GI50 ([19]; SK-OV-3, Ovarian Cancer, five-dose screen, read-out: GI50): 2.02 µM | GI50 ([20]; RPMI-8226, Leukemia, five-dose screen, read-out: GI50): 1.42 µM | GI50 ([21]; COLO 205, Colon Cancer, five-dose screen, read-out: GI50): 2.82 µM | GI50 ([22]; SK-MEL-28, Melanoma, five-dose screen, read-out: GI50): 3.26 µM | GI50 ([23]; Homo sapiens, 60 cell, mean over all 60 cell lines, read-out: GI50 Mean): < 4 µM | GI50 ([23]; Homo sapiens, mean over Breast Cancer panel, read-out: GI50 Mean): 2 µM | GI50 ([23]; Homo sapiens, mean over CNS Cancer panel, read-out: GI50 Mean): 2.6 µM | GI50 ([23]; Homo sapiens, mean over Colon Cancer panel, read-out: GI50 Mean): 2.23 µM | GI50 ([23]; Homo sapiens, mean over Leukemia panel, read-out: GI50 Mean): 1.89 µM | GI50 ([23]; Homo sapiens, mean over Melanoma panel, read-out: GI50 Mean): 2.4 µM | GI50 ([23]; Homo sapiens, mean over Non-small Cell Lung Cancer panel, read-out: GI50 Mean): 2.59 µM | GI50 ([23]; Homo sapiens, mean over Ovarian Cancer panel, read-out: GI50 Mean): 2.15 µM | GI50 ([23]; Homo sapiens, mean over Prostate Cancer panel, read-out: GI50 Mean): 2.27 µM | GI50 ([23]; Homo sapiens, mean over Renal Cancer panel, read-out: GI50 Mean): 2.33 µM | GI50 ([23]; mean over all 60 cell lines, read-out: GI50 Mean): 2.29 µM | GI50 ([24]; SNB-75, CNS Cancer, five-dose screen, read-out: GI50): 2.11 µM | GI50 ([25]; HCT-116, Colon Cancer, five-dose screen, read-out: GI50): 2.72 µM | GI50 ([26]; HOP-92, Non-small Cell Lung Cancer, five-dose screen, read-out: GI50): 1.99 µM | GI50 ([27]; UACC-257, Melanoma, five-dose screen, read-out: GI50): 2.7 µM | GI50 ([28]; DU-145, Prostate Cancer, five-dose screen, read-out: GI50): 2.67 µM | GI50 ([29]; MOLT-4, Leukemia, five-dose screen, read-out: GI50): 1.35 µM | GI50 ([30]; NCI-H226, Non-small Cell Lung Cancer, five-dose screen, read-out: GI50): 1.84 µM | GI50 ([31]; MALME-3M, Melanoma, five-dose screen, read-out: GI50): 2.2 µM | GI50 ([32]; CAKI-1, Renal Cancer, five-dose screen, read-out: GI50): 3.07 µM

CC[C@]12C=CCN3CC[C@@]4(c5ccc(OC)cc5N(C)[C@H]4[C@@](O)(C(=O)OC)[C@@H]1OC(=O)CCCN1CCN(C(c4ccc(F)cc4)c4ccc(F)cc4)CC1)[C@@H]32 [Compound 25]
GI50 ([1]; UACC-62): 1.78 µM | GI50 ([2]; MCF7): 1.7 µM | GI50 [33]: 1.7 µM | GI50 [3]: 1.91 µM | GI50 ([4]; SF-295): 1.7 µM | GI50 [5]: 1.66 µM | GI50 ([6]; 786-0): 1.58 µM | GI50 ([7]; NCI-H23): 1.91 µM | GI50 ([8]; A498): 5.25 µM | GI50 ([9]; SNB-19): 1.66 µM | GI50 ([10]; HOP-62): 1.62 µM | GI50 [11]: 2.04 µM | GI50 ([12]; OVCAR-8): 2.09 µM | GI50 ([13]; UO-31): 1.66 µM | GI50 ([14]; NCI-H522): 1.7 µM | GI50 ([15]; SF-539): 1.66 µM | GI50 [16]: 1.95 µM | GI50 ([17]; KM12): 1.78 µM | GI50 ([18]; SK-MEL-2): 2.4 µM | GI50 ([19]; SK-OV-3): 1.55 µM | GI50 ([20]; RPMI-8226): 1.95 µM | GI50 ([21]; COLO 205): 1.66 µM | GI50 ([22]; SK-MEL-28): 1.74 µM | GI50 ([23]; Homo sapiens, 60 cell, read-out: GI50 Mean, mean over all 60 cell lines): 1.85 µM | GI50 ([23]; Homo sapiens, on almost all cell lines, five-dose screen): < 2 µM | GI50 ([23]; Homo sapiens, read-out: GI50 Mean, mean over Breast Cancer panel): 1.67 µM | GI50 ([23]; Homo sapiens, read-out: GI50 Mean, mean over CNS Cancer panel): 2.21 µM | GI50 ([23]; Homo sapiens, read-out: GI50 Mean, mean over Colon Cancer panel): 1.73 µM | GI50 ([23]; Homo sapiens, read-out: GI50 Mean, mean over Leukemia panel): 1.76 µM | GI50 ([23]; Homo sapiens, read-out: GI50 Mean, mean over Melanoma panel): 1.78 µM | GI50 ([23]; Homo sapiens, read-out: GI50 Mean, mean over Non-small Cell Lung Cancer panel): 1.85 µM | GI50 ([23]; Homo sapiens, read-out: GI50 Mean, mean over Ovarian Cancer panel): 1.73 µM | GI50 ([23]; Homo sapiens, read-out: GI50 Mean, mean over Prostate Cancer panel): 1.65 µM | GI50 ([23]; Homo sapiens, read-out: GI50 Mean, mean over Renal Cancer panel): 2.18 µM | GI50 ([24]; SNB-75): 5.01 µM | GI50 ([25]; HCT-116): 1.78 µM | GI50 ([26]; HOP-92): 1.35 µM | GI50 ([27]; UACC-257): 1.74 µM | GI50 ([28]; DU-145): 1.78 µM | GI50 ([29]; MOLT-4): 1.45 µM | GI50 ([30]; NCI-H226): 2.04 µM | GI50 ([31]; Malme-3M): 1.51 µM | GI50 ([32]; CAKI-1): 1.48 µM
